Source: patent publication US4735651A, “Novel phytotoxic and plant growth regulating oligopeptide” (The United States of America as represented by the …, priority 1986, dated 1988)

Assays:
[1] = tested on: lettuce (Lactuca sativa) cv. Northern Lakes seedlings; test: Root growth bioassay of germinating lettuce seedlings; format: in vivo; details: lettuce seedling assay (L), 10^-6 M
Method: (§1) Applicants' preferred embodiments of this invention comprises the incorporation of structural peptide backbone changes which increase conformational constraint, and vary the orientation of amino acid side chains when constrasted with naturally occurring amino acid sequences. […] Rooth growth inhibition/promotion was measured in germinating lettuce (Lactuca sativa) cv. Northern Lakes and curly cress (Lepidium sativum) seedling assays nominally used for screening herbicidal compounds and in a wheat coleoptile assay used for generally screening biological activity. Only compounds exerting measurable biological activities at 1×10^-6 M in concentration in the lettuce and cress assays and 1×10^-3 M in the wheat coleoptile are claimed.
(§2) Aliquots of tested oligopeptide compounds of the type Formulas I-V were dissolved in ethyl acetate. One milliliter aliquots of the samples were pipetted onto a […] filter disk, dried, and placed in a Petri dish. One mL of distilled water was pipetted onto the filter paper and 15 lettuce seeds were uniformly distributed on the surface of the filter paper and allowed to imbibe in the dark at 20° to 25° C. for 24 h. The samples were subsequently placed in a growth chamber under continuous light at 28° C. for 72 h, and the root lengths were measured.
(§3) During the course of these assays, visual assessment of seedling vigor was made in addition to root length measurements. […] Assessment of phytotoxicity was not confined to assessment of the root, but included any organ of the assay species.

[2] = tested on: curly cress (Lepidium sativum) seedlings; test: Root growth bioassay of germinating curly cress seedlings; format: in vivo; details: curly cress seedling assay (C), 10^-6 M
Method: as §1, §2, §3

[3] = tested on: lettuce and cress seedlings; test: Lettuce and curly cress seedling assays, visual assessment and overall activity (species not split); format: in vivo, Lactuca sativa; Lepidium sativum; set-up: key to Phytotoxicity: +: designated as phytotoxic if they exhibited either chlorosis and/or necrosis of tissues when compared with untreated control plants; details: for Root growth inhibitor or promoter activity (in words): 10^-6 M; for Phytotoxicity: visual assessment of chlorosis and/or necrosis, any organ; for Phytotoxic properties observed (in words): visual assessment of seedlings
Method: as §1, §2, §3

[4] = tested on: lettuce, potato, cucumber, spinach, radish, corn, tobacco; details: literature; cited from earlier work
[5] = tested on: susceptible maize hybrids; details: literature; cited from earlier work

CCN(C(=O)[C@@H](CC(C)C)NC(=O)OC(C)(C)C)/C(=C\c1ccccc1)C(=O)NCC(=O)OC [Compound 7, Boc-D-Leu-N(C2 H5)Δ^z Phe-Gly-OMe]
% Root Growth Inhibitor (inhibition) [1]: 50%
% Root Growth Inhibitor (inhibition) [2]: 80%

COC(=O)CNC(=O)/C(=C/c1ccccc1)N(C)C(=O)[C@H](CC(C)C)NC(=O)OC(C)(C)C [Compound 8, Boc-Leu-N(CH3)Δ^z Phe-Gly-OMe]
% Root Growth Inhibitor (inhibition) [1]: 60%
% Root Growth Inhibitor (inhibition) [2]: 50%

COC(=O)CNC(=O)/C(=C/c1ccccc1)NC(=O)[C@@H](C)NC(=O)OC(C)(C)C [Compound 10, Boc-D-Ala-Δ^z Phe-Gly-OMe]
% Root Growth Inhibitor (inhibition) [1]: 40%
% Root Growth Inhibitor (inhibition) [2]: 20%

COC(=O)CNC(=O)/C(=C/c1ccccc1)N(C)C(=O)[C@@H](NC(=O)OC(C)(C)C)C(C)C [Compound 12, Boc-Val-N(CH3)Δ^z Phe-Gly-OMe]
% Root Growth Inhibitor (inhibition) [2]: 85%

CC(C)C[C@@H]1NC(=O)[C@H](C)N(C)C(=O)CNC(=O)/C(=C/c2ccccc2)N(C)C1=O [Compound 13, cyclo [L-Leucyl-N-methyl-(Z)-dehydrophenylalanyl-glycyl-N-methyl-L-alnyl]]
Root growth inhibitor or promoter activity (in words) [3]: Not active as a inhibitor
Root growth inhibitor or promoter activity (in words) ([3]; listed as tentoxin): none of the plant growth inhibiting or promoting properties
Phytotoxicity [3]: +
Phytotoxic properties observed (in words) [3]: induces chlorosis in lettuce seedlings
Chlorosis induction [4]: induces chlorosis in lettuce, potato, cucumber and spinach but not in radish, corn and some species of tobacco

C[C@@H]1NC(=O)[C@H]2CCCN2C(=O)[C@H](CCCCCC(=O)[C@@H]2CO2)NC(=O)[C@@H](C)NC1=O [HC toxin]
Root growth inhibition [5]: root growth inhibition of susceptible maize hybrids

Boc-N(CH3)-Ala-Leu-N(CH3)Δ^z Phe-Gly-OMe [Compound 5]
Root growth inhibitor or promoter activity (in words) [3]: active
Phytotoxicity [3]: +
Phytotoxic properties observed (in words) [3]: root growth inhibition leading to early mortality
